The data set is described as follows: Dissolution of the crystalline solid in water. Type of data set: physicochemical. To be noted: weighed amount of crystalline mass dissolved in water. On the procedure:
The slurry was stirred and 50% NaOH (102.7 g) was slowly added as the flask was chilled in an ice bath to keep the temperature of the flask contents at around 75° F. Using a dropping funnel, elemental bromine (67.3 g) was dispensed at a rate of about one drop per second to the reaction medium, also with stirring and cooling to maintain a reaction temperature of 68° F. When the bromine addition was complete, the pH of the reaction medium was measured to be 1.97. A single charge of powdered trichloroisocyanuric acid (90.4% available Cl2) (33.1 g) was then delivered to the reaction medium through one of the necks of the flask. Stirring and cooling continued as normal as a fine powdery precipitate of cyanuric acid developed. After 10 minutes, 50% NaOH (11 g) was added dropwise in order to diminish the amount of bromine vapors that were fuming from the reaction medium. The cyanuric acid precipitate was then removed by vacuum filtration. […] The supernatant liquid above the crystals analyzed as 22.7% as Br2 (10.1% as Cl2), indicating the aqueous phase was losing active ingredient at the expense of crystal growth. […]

Consider `O.O=S(=O)([O-])NBr.[Na+]` [hydrated sodium N-bromosulfamate], for which the dissolution in water entry was “dissolved rapidly and completely”.
